In US11834453B2, “Substituted pyrimido[5,4-d]pyrimidines as HER2 inhibitors” (Array BioPharma Inc., priority 2020, dated 2023):

Experiments:
EGFR wild type (EGFR WT) = EGFR wild type (EGFR WT) (Homo sapiens (Human), UniProt P00533); assay: Cellular phosphorylation assay, EGF-stimulated EGFR phosphorylation in engineered NIH 3T3 cells, Phospho-EGFR DuoSet IC ELISA, Assay 5; type: cell-based
Procedure, shortened: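 NIH 3T3 cells expressing EGFR WT (20,000/well, attached overnight) were exposed to serially diluted compound for 1 h at 37 °C, then stimulated with 100 ng/ml rEGF for 10 min. Phospho-EGFR in lysates measured by sandwich ELISA optical density; IC50 from curves.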

EGFR = EGFR (Homo sapiens (Human), UniProt P00533); assay: ErbB enzyme assay (CisBio HTRF KinEASE-TK), Assay 3; type: biochemical
Procedure, shortened: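 HTRF KinEASE-TK assay: kinase with 250 nM biotinylated TK-substrate and 1 mM ATP in 25 mM HEPES pH 7.4, 10 mM MgCl2, 0.01% Triton X-100, 2% DMSO, 30 min at 22 °C. Quenched with Sa-XL665/TK-Ab-Cryptate, read after 1 h. IC50 from 4-parameter fit of percent of control.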

ErbB2 WT = ErbB2 WT (Homo sapiens (Human), UniProt P04626); assay: ErbB enzyme assay (CisBio HTRF KinEASE-TK), Assay 2; type: biochemical
Procedure, shortened: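 ErbB2 phosphorylates 250 nM biotin-TK substrate at 1 mM ATP in 25 mM HEPES pH 7.4, 10 mM MgCl2, 0.01% Triton X-100 and 2% DMSO, for 30 min at 22 °C. Product is detected by HTRF with Sa-XL665 and TK-Ab-Cryptate. Percent of control is set by DMSO-only wells and pre-quenched wells.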

[1] = target: ErbB2 with Exon 20 YVMA insertion (HER2-YVMA) (Homo sapiens (Human), UniProt P04626, INS775YVMA); assay: Cellular phosphorylation assay, constitutive ErbB2 phosphorylation (Y1196) in engineered NIH 3T3 cells, Assay 4; type: cell-based
Procedure, shortened: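 Engineered NIH 3T3 cells expressing HER2-YVMA treated with compounds 1 h at 37 °C, then formaldehyde-fixed and methanol-permeabilized. pErbB2 Y1196 detected by in-cell infrared immunofluorescence, normalized to GAPDH. IC50 from the normalized curves.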

[2] = target: ErbB2 insYVMA (HER2-YVMA, SEQ ID NO: 2) (Homo sapiens, UniProt P04626, INS775YVMA/P1170A); assay: biochemical; conditions: ErbB2 insYVMA enzyme assay; read-out: Assay 1 IC50

ErbB2 with Exon 20 YVMA insertion (HER2-YVMA), sequence (P04626 other isoform, or with tags, fused parts or gaps ins YVMA behind 775): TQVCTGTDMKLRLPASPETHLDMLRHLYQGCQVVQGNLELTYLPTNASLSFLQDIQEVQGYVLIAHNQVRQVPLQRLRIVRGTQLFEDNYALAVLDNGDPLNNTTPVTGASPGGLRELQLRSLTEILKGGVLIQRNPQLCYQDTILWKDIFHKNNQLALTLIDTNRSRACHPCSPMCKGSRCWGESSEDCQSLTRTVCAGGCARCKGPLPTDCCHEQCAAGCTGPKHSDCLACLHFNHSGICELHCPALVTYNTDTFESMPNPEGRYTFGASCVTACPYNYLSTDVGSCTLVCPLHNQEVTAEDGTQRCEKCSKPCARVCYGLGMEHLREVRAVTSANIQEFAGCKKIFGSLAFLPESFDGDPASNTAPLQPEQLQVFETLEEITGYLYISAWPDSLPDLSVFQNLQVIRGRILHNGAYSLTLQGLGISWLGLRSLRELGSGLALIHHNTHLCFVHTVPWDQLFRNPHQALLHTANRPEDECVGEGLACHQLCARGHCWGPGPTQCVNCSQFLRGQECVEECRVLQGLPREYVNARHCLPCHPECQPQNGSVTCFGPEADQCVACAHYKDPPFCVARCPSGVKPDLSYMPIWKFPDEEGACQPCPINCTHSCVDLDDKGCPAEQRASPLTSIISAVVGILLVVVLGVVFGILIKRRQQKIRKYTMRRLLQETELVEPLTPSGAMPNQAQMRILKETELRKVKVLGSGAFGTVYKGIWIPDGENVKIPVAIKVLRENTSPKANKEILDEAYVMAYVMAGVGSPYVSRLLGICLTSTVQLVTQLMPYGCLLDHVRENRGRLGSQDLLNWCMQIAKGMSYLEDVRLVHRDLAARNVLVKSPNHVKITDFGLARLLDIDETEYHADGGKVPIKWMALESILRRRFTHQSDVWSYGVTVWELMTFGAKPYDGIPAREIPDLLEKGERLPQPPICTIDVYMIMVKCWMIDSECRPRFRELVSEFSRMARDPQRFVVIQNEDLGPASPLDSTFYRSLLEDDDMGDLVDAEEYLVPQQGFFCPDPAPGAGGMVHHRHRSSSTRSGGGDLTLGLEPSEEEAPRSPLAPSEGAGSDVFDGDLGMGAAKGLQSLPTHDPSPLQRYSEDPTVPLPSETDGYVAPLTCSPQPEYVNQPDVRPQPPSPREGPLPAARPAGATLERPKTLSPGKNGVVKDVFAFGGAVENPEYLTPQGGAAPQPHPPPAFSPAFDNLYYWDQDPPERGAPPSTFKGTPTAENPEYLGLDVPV
EGFR wild type (EGFR WT), sequence (P00533 25-1210): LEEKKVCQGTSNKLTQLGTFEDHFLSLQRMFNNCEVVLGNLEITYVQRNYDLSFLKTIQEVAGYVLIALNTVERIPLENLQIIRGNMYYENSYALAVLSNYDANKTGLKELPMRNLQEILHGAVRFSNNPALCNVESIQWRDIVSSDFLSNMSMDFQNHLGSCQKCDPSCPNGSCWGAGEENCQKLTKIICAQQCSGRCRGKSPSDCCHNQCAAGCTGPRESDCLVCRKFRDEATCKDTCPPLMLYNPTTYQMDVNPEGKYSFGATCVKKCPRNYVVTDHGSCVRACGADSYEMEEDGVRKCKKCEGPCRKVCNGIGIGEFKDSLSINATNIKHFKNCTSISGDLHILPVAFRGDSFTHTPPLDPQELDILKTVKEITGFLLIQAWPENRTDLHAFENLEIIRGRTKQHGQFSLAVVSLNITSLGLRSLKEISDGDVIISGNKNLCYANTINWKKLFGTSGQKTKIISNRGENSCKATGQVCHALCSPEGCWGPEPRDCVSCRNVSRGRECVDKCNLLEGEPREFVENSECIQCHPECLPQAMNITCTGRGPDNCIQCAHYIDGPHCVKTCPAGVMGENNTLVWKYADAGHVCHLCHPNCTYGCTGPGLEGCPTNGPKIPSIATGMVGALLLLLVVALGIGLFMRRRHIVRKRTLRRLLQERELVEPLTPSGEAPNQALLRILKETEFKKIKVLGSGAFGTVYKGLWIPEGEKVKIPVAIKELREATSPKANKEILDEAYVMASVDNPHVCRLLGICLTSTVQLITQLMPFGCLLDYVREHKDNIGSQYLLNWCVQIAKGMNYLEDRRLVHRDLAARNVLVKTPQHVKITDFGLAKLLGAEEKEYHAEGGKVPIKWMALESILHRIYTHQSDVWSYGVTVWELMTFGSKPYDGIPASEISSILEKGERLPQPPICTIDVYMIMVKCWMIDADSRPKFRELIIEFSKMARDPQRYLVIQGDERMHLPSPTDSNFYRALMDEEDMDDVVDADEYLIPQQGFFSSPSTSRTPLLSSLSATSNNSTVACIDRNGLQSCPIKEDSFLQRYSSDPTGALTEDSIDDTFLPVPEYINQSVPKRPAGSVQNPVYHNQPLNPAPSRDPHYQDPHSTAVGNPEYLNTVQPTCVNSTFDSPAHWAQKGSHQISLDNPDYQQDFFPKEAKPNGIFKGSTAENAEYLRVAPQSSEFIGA
EGFR, sequence (P00533 25-1210): as above
ErbB2 WT, sequence (P04626 23-1255): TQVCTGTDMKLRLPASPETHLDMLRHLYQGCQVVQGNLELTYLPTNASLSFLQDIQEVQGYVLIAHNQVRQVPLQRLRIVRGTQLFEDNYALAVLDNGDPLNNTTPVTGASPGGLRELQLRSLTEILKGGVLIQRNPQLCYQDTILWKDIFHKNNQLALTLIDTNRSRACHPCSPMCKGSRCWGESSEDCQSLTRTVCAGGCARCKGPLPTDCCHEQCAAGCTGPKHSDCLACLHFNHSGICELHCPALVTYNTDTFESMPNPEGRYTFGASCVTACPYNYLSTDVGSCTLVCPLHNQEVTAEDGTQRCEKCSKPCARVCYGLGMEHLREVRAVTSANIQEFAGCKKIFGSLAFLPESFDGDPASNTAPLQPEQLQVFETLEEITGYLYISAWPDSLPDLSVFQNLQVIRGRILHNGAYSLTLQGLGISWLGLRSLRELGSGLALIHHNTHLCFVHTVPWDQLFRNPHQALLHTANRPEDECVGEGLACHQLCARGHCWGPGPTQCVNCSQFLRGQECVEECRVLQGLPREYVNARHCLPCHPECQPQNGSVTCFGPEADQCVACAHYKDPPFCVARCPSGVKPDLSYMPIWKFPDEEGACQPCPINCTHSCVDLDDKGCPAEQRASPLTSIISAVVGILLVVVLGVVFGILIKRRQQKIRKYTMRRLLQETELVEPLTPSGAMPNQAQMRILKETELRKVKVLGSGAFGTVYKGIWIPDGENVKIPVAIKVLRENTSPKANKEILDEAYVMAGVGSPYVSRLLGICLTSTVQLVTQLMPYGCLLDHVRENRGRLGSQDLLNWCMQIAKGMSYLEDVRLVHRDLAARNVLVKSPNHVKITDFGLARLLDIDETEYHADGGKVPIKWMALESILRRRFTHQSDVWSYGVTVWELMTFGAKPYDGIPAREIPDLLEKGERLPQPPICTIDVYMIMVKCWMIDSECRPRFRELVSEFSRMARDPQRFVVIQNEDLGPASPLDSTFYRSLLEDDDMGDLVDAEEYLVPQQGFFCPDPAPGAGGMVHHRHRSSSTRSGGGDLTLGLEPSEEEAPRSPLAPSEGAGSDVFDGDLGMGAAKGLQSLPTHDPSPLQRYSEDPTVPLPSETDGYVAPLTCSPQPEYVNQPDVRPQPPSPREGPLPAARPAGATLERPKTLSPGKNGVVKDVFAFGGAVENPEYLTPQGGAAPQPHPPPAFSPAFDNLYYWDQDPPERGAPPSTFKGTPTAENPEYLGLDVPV

| SMILES | IC50 (EGFR wild type (EGFR WT)) | IC50 (EGFR) | IC50 (ErbB2 WT) | IC50 [1] | IC50 [2] |
| --- | --- | --- | --- | --- | --- |
| Cc1cc(Nc2ncnc3cnc(N4CC5(CC5)CS4(=O)=O)nc23)ccc1Oc1ccc2c(c1)ncn2C [Example 264] | ≥ 5000 nM | ≥ 10000 nM | 42.4 nM | 6.6 nM | 35.1 nM |
| Clc1cc(Nc2ncnc3cnc(N4CC[C@@]5(CCOC5)C4)nc23)ccc1Oc1ccn2ncnc2c1 [Example 356] | ≥ 5000 nM | ≥ 10000 nM | 92.8 nM | 270 nM | 36.1 nM |
| Cc1cc(Nc2ncnc3cnc(N4CCN[C@H](C)C4)nc23)ccc1Oc1ccc2c(c1)ncn2C [Example 277] | ≥ 5000 nM | ≥ 10000 nM | 42.8 nM | 28.3 nM | 16 nM |
| Clc1cc(Nc2ncnc3cnc(N4C[C@@H]5[C@H](C4)[C@H]4CC[C@@H]5O4)nc23)ccc1Oc1ccn2ncnc2c1 [Example 351] | ≥ 5000 nM | ≥ 10000 nM | 58.4 nM | 150 nM | 30.8 nM |
| Cc1cc(Nc2ncnc3cnc(N4CC[C@](C)(O)C4)nc23)ccc1Oc1ccn2ncnc2c1 [Example 365] | ≥ 5000 nM | 7570 nM | 81.8 nM | 132 nM | 38.4 nM |
| COC[C@H](O)CN(C)c1ncc2ncnc(Nc3ccc(Oc4ccn5ncnc5c4)c(Cl)c3)c2n1 [Example 325] | ≥ 5000 nM | 4880 nM | 45.3 nM | 166 nM | 27.5 nM |
| Cc1cc(Nc2ncnc3cnc(N4CCC(F)(F)[C@@H](O)C4)nc23)ccc1Oc1ccc2c(c1)ncn2C [Example 460] | ≥ 5000 nM | ≥ 10000 nM | 89.7 nM | 88 nM | 59.1 nM |
| Cc1c(Oc2ccc3c(c2)ncn3C)ccc(Nc2ncnc3cnc(N4CC5CC5(O)C4)nc23)c1F (stereo not drawn) [Example 347] | ≥ 5000 nM | ≥ 10000 nM | 110 nM | 244 nM | 79.6 nM |
| COC[C@@H]1CCN1c1ncc2ncnc(Nc3ccc(Oc4ccn5ncnc5c4)c(Cl)c3)c2n1 [Example 328] | ≥ 5000 nM | ≥ 10000 nM | 105 nM | 306 nM | 17.9 nM |
| Cc1c(Oc2ccn3ncnc3c2)ccc(Nc2ncnc3cnc(N4CC[C@@](C)(O)C4)nc23)c1F [Example 308] | ≥ 5000 nM | ≥ 10000 nM | 28.8 nM | 492 nM | 15.1 nM |
| Cc1cc(Nc2ncnc3cnc(N4CCN5CCOC[C@H]5C4)nc23)ccc1Oc1ccn2ncnc2c1 [Example 417] | ≥ 5000 nM | 6860 nM | 62.1 nM | 62.6 nM | 31.4 nM |
| Cc1cc(Nc2ncnc3cnc(N4CCCC4=O)nc23)ccc1Oc1ccn2ncnc2c1 [Example 137, 1-(8-((4-([1,2,4]triazolo[1,5-a]pyridin-7-yloxy)-3-methylphenyl)amino)pyrimido[5,4-d]pyrimidin-2-yl)pyrrolidin-2-one] | ≥ 5000 nM | ≥ 10000 nM | 166 nM | 1080 nM | 97.7 nM |
| CON1CCN(c2ncc3ncnc(Nc4ccc(Oc5ccc6c(c5)ncn6C)c(C)c4Cl)c3n2)CC1 [Example 98, N-(2-chloro-3-methyl-4-((1-methyl-1H-benzo[d]imidazol-5-yl)oxy)phenyl)-6-(4-methoxypiperazin-1-yl)pyrimido[5,4-d]pyrimidin-4-amine] | ≥ 5000 nM | ≥ 10000 nM | 1950 nM | 266 nM | 232 nM |
| Cc1cc(Nc2ncnc3cnc(N4CC(F)(F)C4)nc23)ccc1Oc1ccc2c(c1)ncn2C [Example 38, 6-(3,3-difluoroazetidin-1-yl)-N-(3-methyl-4-((1-methyl-1H-benzo[d]imidazol-5-yl)oxy)phenyl)pyrimido[5,4-d]pyrimidin-4-amine] | ≥ 5000 nM | ≥ 10000 nM | 403 nM | 65.1 nM | 183 nM |
| Cc1c(Oc2ccn3ncnc3c2)ccc(Nc2ncnc3cnc(N4CC[C@H]4C(C)(C)O)nc23)c1F [Example 309] | ≥ 5000 nM | ≥ 10000 nM | 223 nM | 5000 nM | 184 nM |
| Cc1c(Oc2ccn3ncnc3c2)ccc(Nc2ncnc3cnc(N(C)CC4(O)CC4)nc23)c1F [Example 314] | ≥ 5000 nM | 6080 nM | 88.1 nM | 2020 nM | 29.8 nM |
| Cc1c(Oc2ccn3ncnc3c2)ccc(Nc2ncnc3cnc(N(C)CC4(O)CCC4)nc23)c1F [Example 315] | ≥ 5000 nM | 3690 nM | 64.8 nM | 1490 nM | 39.3 nM |
| FC(F)O[C@@H]1CCN(c2ncc3ncnc(Nc4ccc(Oc5ccn6ncnc6c5)c(Cl)c4)c3n2)C1 [Example 354] | ≥ 5000 nM | ≥ 10000 nM | 29 nM | 72.2 nM | 27.6 nM |
| Cc1cc(Nc2ncnc3cnc(O[C@@H]4CN(C)C[C@@H]4F)nc23)ccc1Oc1ccc2c(c1)ncn2C [Example 87, 6-(((3R,4S)-4-fluoro-1-methylpyrrolidin-3-yl)oxy)-N-(3-methyl-4-((1-methyl-1H-benzo[d]imidazol-5-yl)oxy)phenyl)pyrimido[5,4-d]pyrimidin-4-amine] | ≥ 5000 nM | ≥ 10000 nM | 346 nM | 95.1 nM | 69.5 nM |
| Cc1cc(Nc2ncnc3cnc(N4C[C@@H]5[C@H](C4)[C@H]4CC[C@@H]5O4)nc23)ccc1Oc1ccc2c(c1)ncn2C [Example 380] | ≥ 5000 nM | ≥ 10000 nM | 64 nM | 43.2 nM | 46.4 nM |
| Cc1cc(Nc2ncnc3cnc(N4CC[C@]45CCOC5)nc23)ccc1Oc1ccn2ncnc2c1 [Example 374] | ≥ 5000 nM | 1180 nM | 14.2 nM | 216 nM | 14.3 nM |
| Cc1cc(Nc2ncnc3cnc(N4CC[C@@H](C#N)C4)nc23)ccc1Oc1ccn2ncnc2c1 [Example 404] | ≥ 5000 nM | 7550 nM | 37 nM | 182 nM | 22.8 nM |
| Cc1cc(Nc2ncnc3cnc(N4CCOC5(CC5)C4)nc23)ccc1Oc1ccc2c(c1)ncn2C [Example 58, N-(3-methyl-4-((1-methyl-1H-benzo[d]imidazol-5-yl)oxy)phenyl)-6-(4-oxa-7-azaspiro[2.5]octan-7-yl)pyrimido[5,4-d]pyrimidin-4-amine] | ≥ 5000 nM | ≥ 10000 nM | 123 nM | 10.6 nM | 62.5 nM |
| O[C@H]1[C@@H]2C[C@H]1CN(c1ncc3ncnc(Nc4ccc(Oc5ccn6ncnc6c5)c(Cl)c4)c3n1)C2 [Example 336] | ≥ 5000 nM | ≥ 10000 nM | 130 nM | 2260 nM | 54 nM |
